Measured values reported in paper PMC12041765, “The development of a high-throughput acoustic droplet ejection mass-spectrometry assay and a solid-supported membrane (SSM)-based electrophysiological assay to study the pharmacological inhibition of SLC1-A3, -A2 and -A1 in a drug discovery program” (Frontiers in Pharmacology, 2025).
Read-outs that look alike come from different tables or passages of the source.

Key:
EAAT2 [1] = system: EAAT2; parameters: method as in Arriza et al. (1994); settings: oocytes, Voltage-Clamp, ref Arriza et al. (1994); cited from earlier work
EAAT3 [2] = settings: oocytes, Voltage-Clamp, ref Arriza et al. (1994); cited from earlier work
EAAT1 [3] = settings: glutamic acid uptake assay, ref Vallejo-Illarramendi et al. (2005); cited from earlier work
EAAT3 [4] = settings: cited from earlier work
EAAT3 [5] = settings: radio-labeled uptake, COS7 cells, ref Arriza et al. (1994); cited from earlier work
EAAT1 [6] = settings: cited from earlier work
SLC1A2 (EAAT2) = molecular target: T1, SLC1A2 (EAAT2) (Homo sapiens, UniProt P43004); test: SSM-based electrophysiology (SURFE2R 96 SE), EAAT2 membrane fragments; type: biochemical; settings: glutamic acid up to 500 µM, membrane 4 µg/well, read-out: SURFE^2R Km
T1 construct: host or cells: HEK293-JumpIn, doxycycline-induced

EAAT1 [7] = settings: radio-labeled uptake, COS7 cells, ref Arriza et al. (1994); cited from earlier work
EAAT2 [8] = settings: cited from earlier work
EAAT1 [9] = settings: oocytes, Voltage-Clamp, ref Arriza et al. (1994); cited from earlier work
EAAT2 [10] = system: EAAT2; parameters: method as in Arriza et al. (1994); settings: radio-labeled uptake, COS7 cells, ref Arriza et al. (1994); cited from earlier work
[11] = FLIPR membrane potential assay, ref Faure et al. (2006)
[12] = similar methodologies (FLIPR), ref Alaux et al. (2005)

T1 sequence (P43004 whole entry, the tested form may be a part): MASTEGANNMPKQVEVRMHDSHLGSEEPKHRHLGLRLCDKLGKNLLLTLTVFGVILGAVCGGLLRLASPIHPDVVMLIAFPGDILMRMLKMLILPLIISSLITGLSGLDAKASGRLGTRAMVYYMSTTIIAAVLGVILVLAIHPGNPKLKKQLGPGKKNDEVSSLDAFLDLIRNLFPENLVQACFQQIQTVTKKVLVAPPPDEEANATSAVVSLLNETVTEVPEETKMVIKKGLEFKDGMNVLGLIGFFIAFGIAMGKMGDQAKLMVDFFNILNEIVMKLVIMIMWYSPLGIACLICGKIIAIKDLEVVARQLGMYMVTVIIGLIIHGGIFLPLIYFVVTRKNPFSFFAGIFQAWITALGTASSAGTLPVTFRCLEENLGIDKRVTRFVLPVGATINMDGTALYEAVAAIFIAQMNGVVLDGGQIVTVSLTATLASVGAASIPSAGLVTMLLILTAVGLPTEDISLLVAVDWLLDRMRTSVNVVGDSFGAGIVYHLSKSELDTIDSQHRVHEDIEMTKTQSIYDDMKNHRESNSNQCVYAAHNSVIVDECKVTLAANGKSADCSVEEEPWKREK

SMILES: N[C@@H](CCC(=O)O)C(=O)O [glutamic acid, L-glutamic acid]
- Km (EAAT2 [1]): 18 ± 3 µM
- Km (EAAT3 [2]): 28 ± 6 µM
- Km (EAAT1 [3]): 27.5 ± 2.3 µM
- Km (EAAT3 [4]; [11]): 9.9 µM
- Km (EAAT3 [4]; [12]): 25 µM
- Km (EAAT3 [5]): 62 ± 8 µM
- Km (EAAT1 [6]; [11]): 7.9 µM
- Km (EAAT1 [6]; [12]): 9.2 µM
- Km (SLC1A2 (EAAT2)): 9.5 µM
- Km (EAAT1 [7]): 48 ± 10 µM
- Km (EAAT2 [8]; [11]): 21 µM
- Km (EAAT2 [8]; [12]): 21 µM
- Km (EAAT1 [9]): 20 ± 3 µM
- Km (EAAT2 [10]): 97 ± 4 µM
